Experimental data taken from ChEMBL document CHEMBL1649078, “Novel antiviral C5-substituted pyrimidine acyclic nucleoside phosphonates selected as human thymidylate kinase substrates” (J Med Chem, 2011).

Tested on: Vaccinia virus
Test: Antiviral activity against Vaccinia virus infected in human HEL cells assessed as reduction of virus-induced cytopathogenicity after 7 days
Type: functional, organism-based
Settings: Orthopoxvirus vaccinia, 168 h

Row | Compound | EC50
1 | Cc1cn(C/C=C/CP(=O)(OCOC(=O)C(C)(C)C)OCOC(=O)C(C)(C)C)c(=O)[nH]c1=O | 30 µM
2 | Cc1cn(C/C=C\CP(=O)(OCOC(=O)C(C)(C)C)OCOC(=O)C(C)(C)C)c(=O)[nH]c1=O | > 40 µM
3 | CC(C)(C)C(=O)OCOP(=O)(C/C=C/Cn1cc(Br)c(=O)[nH]c1=O)OCOC(=O)C(C)(C)C | 33 µM
4 | CC(C)(C)C(=O)OCOP(=O)(C/C=C\Cn1cc(Br)c(=O)[nH]c1=O)OCOC(=O)C(C)(C)C | 90 µM
5 | O=c1[nH]c(=O)n([C@H]2C[C@H](O)[C@@H](CO)O2)cc1/C=C/Br [BRIVUDINE] | 1.5 µM
6 | Nc1ccn(C[C@@H](CO)OCP(=O)(O)O)c(=O)n1 [CIDOFOVIR] | 6 µM
7 | Nc1nc2c(ncn2COC(CO)CO)c(=O)[nH]1 [GANCICLOVIR] | > 100 µM
